Measurements published in publication PMC7809749, “Tumor vasculature-targeted ^10B delivery by an Annexin A1-binding peptide boosts effects of boron neutron capture therapy” (BMC Cancer, 2021).

What was measured:
[1] = system: MBT2 bladder tumor-bearing C3H/He mice; experiment: ^10B concentration in tumors and normal organs by prompt gamma-ray analysis; format: in vivo, mouse; details: for Intratumoral ^10B concentration: IF7 conjugates 7 mg/kg, fructose-^10BPA 0.791 mg/kg, ^10BSH 0.868 mg/kg, MBT2 tumor; for Intratumoral ^10B concentration / ^10B tumor/blood (T/B) ratio: mean ± SD; for ^10B tumor/blood (T/B) ratio: same doses; for Tumor/blood (T/B) ratio, range: by 40 min after injection (range over 5-40 min); for Intratumoral concentration reached: ultralow dose 7 mg/kg iv, MBT2 tumor-bearing mice, discussion summary
Protocol: MBT2 cells (1 × 10^6 cells per mouse) plus 50 μl Matrigel (Corning Inc., NY, USA) were injected subcutaneously using a 27-gauge needle into the right thighs of 8-week-old female C3H/He mice under anesthesia with 2% isoflurane inhalation. The day of injection was defined as day 0. At 4 weeks after MBT2 cells injection, when MBT2 tumors were palpable, mice were randomly divided into four groups of 16 mice each and injected intravenously with: 1) fructose-^10BPA ((0.791 mg/kg), 2) IF7C(^10BPA)RR (7 mg/kg), 3) ^10BSH 0.868 mg/kg), or 4) IF7K(^10BSH)RR (7 mg/kg). Within 5, 10, 20, and 40 min of injection, four mice at each time point were sacrificed by cervical dislocation under anesthesia with 2% isoflurane inhalation. From each mouse, the tumor, brain, lung, heart, liver, kidney, bladder, stomach, intestine, spleen, skin, muscles, and blood were collected in a Teflon tube for ^10B measurement. ^10B concentrations in tissues were measured by prompt gamma-ray spectrometry using a thermal neutron guide tube installed at the Institute for Integrated Radiation and Nuclear Science, Kyoto University (KURNS).

[2] = system: tumor; details: after intravenous injection; cited from earlier work
[3] = cited from earlier work
Protocol: To facilitate esterase-aided ^10BPA release following delivery to a tumor, we conjugated IF7C to ^10BPA via an ester bond with a propanolamine linker. Following analysis of 584 mg of IF7C(^10BPA)RR, we determined its purity to be 99.5% (Fig. S1A). By contrast, to design a conjugate to be internalized by tumor cells, we conjugated IF7K to ^10BSH directly through an uncleavable linker, N-(6-maleimidocaproyloxy) sulfosuccinimide (Sulfo-EMCS). We synthesized a total of 411 mg IF7K(^10BSH)RR, and determined its purity to be 98.8% (Fig. S1B).

[4] = system: murine MBT2 bladder tumor; experiment: Nuclear reactor-based BNCT of MBT2 bladder tumor-bearing mice; format: in vivo, mouse; details: compound-mediated BNCT: 10 mg/kg iv 40 min before neutron irradiation (60 min, 1 MW); MBT2, n = 3; mean ± SD
Protocol: MBT2 cells were injected as described above into the right thighs of 8-week-old female C3H/He mice, and the day of injection defined as day 0. Four weeks later, when MBT2 tumors were palpable, mice were randomly divided into six groups of 3 mice each: 1) untreated control, 2) IF7C(^10BPA)RR, 3) IF7K(^10BSH)RR, 4) neutron-irradiated controls, 5) IF7C(^10BPA)RR-mediated BNCT, and 6) IF7K(^10BSH)RR-mediated BNCT. In Groups 4, 5, and 6, tumors in right thighs were subjected to neutron beam irradiation at the heavy water facility of KURNS Research Reactor for 60 min at a power of 1 MW. Each mouse was held within an acrylic holder during neutron irradiation, and a LiF plate (50 mm thick) was used to shield the body from thermal neutrons, while exposing the tumor. Neutron fluences were measured by radioactivation of gold foils (3 mm diameter; 0.05 mm thick) on surface of both sides of the tumors. Since thermal neutrons were rapidly attenuated in the tumor, the average thermal neutron fluences of both sides were adopted as the fluence irradiated to the tumors. In this study, tumors were irradiated by 1.9 × 10^12 thermal neutrons/cm^2. Thermoluminescent dosimeters for γ-ray dosimetry were attached to tumor surfaces. […] Tumor size was measured using calipers, and tumor volume (V) was calculated as: V = ab^2/2, where a and b are the major and minor axes, respectively. […]

[5] = system: human YTS-1 bladder tumor xenograft; experiment: Cyclotron accelerator-based BNCT of human YTS-1 xenograft mice; format: in vivo; details: mean ± SD; for Tumor volume at 4 weeks after start of first BNCT: compound injection without neutron irradiation, YTS-1 xenograft, nude mice, n = 8; for Tumor volume at 4 weeks: compound-mediated BNCT, 20 mg/kg iv 40 min before irradiation, two treatments one week apart, YTS-1, n = 8
Protocol: YTS-1 cells (2 × 10^6 cells per mouse) plus 50 μl Matrigel (Corning Inc.) were injected subcutaneously using a 27-gauge needle into the right thighs of 8-week-old female BALB/c nu/nu mice under anesthesia with 2% isoflurane inhalation. The day of injection was defined as day 0. One week later, when YTS-1 xenografts were palpable, mice were randomly divided into six groups of 8 mice each: 1) untreated control, 2) […], 4) neutron-irradiated controls, 5) IF7C(^10BPA)RR-mediated BNCT, and 6) IF7K(^10BSH)RR-mediated BNCT. In Groups 4, 5, and 6, tumors in thighs were subjected to neutron beam irradiation at the cyclotron-typed accelerator (Sumitomo Heavy Industries Ltd.) in the Aomori Prefecture Quantum Science Center for 60 min at a power of […] at 20 MeV. Radiation of mice was performed as described above. The average of the γ-ray dose was 0.23 Gy. Groups 5 and 6, IF7C(^10BPA)RR or IF7K(^10BSH)RR was administered intravenously 40 min before irradiation at a dose of 20 mg/kg. One week after the first BNCT, the second was administered using both the same method and irradiation method. The tumor size and volume was calculated as above. Four weeks after the first BNCT, all mice were sacrificed by cervical dislocation under anesthesia with 2% isoflurane inhalation, and tumors were weighed and prepared for immunohistochemical analysis.

[6] = system: human YTS-1 xenograft tumors; experiment: Immunohistochemistry of YTS-1 xenografts (HE, CD8α, CD31, Ki-67, Anxa1); format: in vivo; details: 3 weeks after second BNCT; for Number of CD8-positive lymphocytes per tumor area / Ki-67 proliferation index: mean ± SD; for Anxa 1 expression vs untreated, compound-only and neutron-irradiated controls: IHC
Protocol: BNCT-treated YTS-1 tumors were collected as described above, fixed in 20% formalin solution and embedded in paraffin. Tissue sections 4 μm thick were mounted on silane-coated glass slides and air-dried for 1 h. Deparaffinized tissue sections underwent heat-induced epitope retrieval using a Histofine antigen retrieval reagent (pH 6.0) (Nichirei Biosciences Inc. Tokyo, Japan) and were then incubated with anti-human Ki-67 antigen (clone MIB-1, 1:2000 dilution) or mouse anti-Anxa1 monoclonal antibody (clone MC16, 1:100 dilution) in phosphate-buffered saline (PBS) containing 5% bovine serum albumin (BSA) at 4 °C overnight. Other sections were treated with heat-induced epitope retrieval with Histofine antigen retrieval reagent (pH 9.0) (Nichirei Biosciences Inc.) and then incubated with rabbit anti-mouse CD8α (antibody (EPR21769, 1:2000 dilution) or anti-mouse CD31 (EPR17259, 1:2000 dilution) in PBS containing 5% BSA at 4 °C overnight. The Envision/HRP rabbit mouse kit was used for antibody detection (Agilent Technologies Japan., Tokyo, Japan). Nuclear counterstaining was performed by incubating sections with hematoxylin solution (Agilent Technologies Japan) for 2 min at room temperature. Eosin alcohol solution (Fujifilm Wako Pure Chemical Corporation) was used to perform HE staining, according to the manufacturer’s instruction. Images (10× objective) were captured using a Keyence BZ-9000 fluorescence microscope (Keyence, Tokyo, Japan) and BZ-II analyzer Ver 2.2 (Keyence). The white balance was adjusted for each specimen.
Six complete and non-overlapping tumor regions of interest (ROI) were selected from each case and saved as .tif files. The number of diaminobenzidine (DAB)-stained nuclei was determined in the ROI using color deconvolution and the particle analysis plug-in of the Fiji platform (ImageJ distribution, http://fiji.sc/Fiji). The mean number of CD8-positive lymphocytes in all six fields was used for statistical analysis. The number of diaminobenzidine (DAB)-stained blood vessels was counted in a ROI using the color deconvolution plug-in of the Fiji platform (ImageJ distribution, http://fiji.sc/Fiji). The mean number of CD31-positive blood vessels in all six fields was used for statistical analysis.
As above, six complete and non-overlapping tumor regions of interest (ROI) were selected and saved as .tif files, and diaminobenzidine (DAB)- and hematoxylin-stained nuclei were counted. Ki-67-positive nuclei were included in the count, regardless of staining intensity, in line with recommendations of the International Ki-67 in Breast Cancer Working Group. The number of DAB-stained nuclei was divided by the sum of DAB- and hematoxylin-stained nuclei, and values were expressed as a percentage. The mean percentage of Ki-67-positive cells in all six field was used for statistical analysis.

[7] = compound injection without neutron irradiation

Substance	Intratumoral ^10B concentration ([1]; 5 min after iv injection) [ppm]	^10B tumor/blood (T/B) ratio ([1]; 5 min after iv injection)	Intratumoral ^10B concentration ([1]; 10 min after iv injection) [ppm]	^10B tumor/blood (T/B) ratio ([1]; 10 min after iv injection)	Intratumoral ^10B concentration ([1]; 20 min after iv injection) [ppm]	^10B tumor/blood (T/B) ratio ([1]; 20 min after iv injection)	Intratumoral ^10B concentration ([1]; 40 min after iv injection) [ppm]	^10B tumor/blood (T/B) ratio ([1]; 40 min after iv injection)	Tumor/blood (T/B) ratio, range [1]	Time for IF7 to target a tumor [2] [min]	Solubility in aqueous solution [3]	Intratumoral concentration reached [1] [ppm]	Tumor volume 3 weeks after BNCT [4] [mm^3]	Tumor volume at 4 weeks after start of first BNCT [5] [mm^3]	Tumor volume at 4 weeks [5] [mm^3]	Number of CD8-positive lymphocytes per tumor area [6, 7] [n/mm^2]	Histology (HE and CD8α staining) ([6]; compound-mediated BNCT)	Anxa 1 expression vs untreated, compound-only and neutron-irradiated controls ([6]; compound-mediated BNCT)	Ki-67 proliferation index ([6]; compound-mediated BNCT) [%]	Number of CD8-positive lymphocytes per tumor area ([6]; compound-mediated BNCT) [n/mm^2]
p-Boronophenylalanine [^10BPA, reference compound]	2.5 ± 4.4	0.77 ± 1.33	2.6 ± 3.1	0.87 ± 0.88	0.0 ± 0.0	0.0 ± 0.0	5.4 ± 5.0	3.16 ± 3.35	0.00–3.16	–	–	–	–	–	–	–	–	–	–	–
IFLLWQR [IF7]	–	–	–	–	–	–	–	–	–	9	poorly soluble	–	–	–	–	–	–	–	–	–
IFLLWQRC(EMCS-^10BPA)RR [IF7C(^10BPA)RR]	9.3 ± 6.9	3.48 ± 3.49	4.6 ± 0.8	2.41 ± 0.27	19.9 ± 20.4	13.54 ± 19.68	4.7 ± 0.5	2.15 ± 0.50	2.15–13.54	–	–	20	2.90 ± 0.49	965 ± 844	123 ± 114	709 ± 328	tissue necrosis with infiltration of CD8α-positive lymphocytes	significantly higher	10.82 ± 6.31	4351 ± 1318
borocaptate sodium [^10BSH, reference compound]	1.6 ± 1.4	0.41 ± 0.72	7.5 ± 8.7	2.46 ± 2.28	17.1 ± 12.8	8.72 ± 4.98	1.7 ± 0.3	1.71 ± 1.14	0.41–8.72	–	–	–	–	–	–	–	–	–	–	–
IFLLWQRK(EMCS-^10BSH)RR [IF7K(^10BSH)RR]	17.8 ± 11.1	7.61 ± 8.81	27.0 ± 15.3	10.92 ± 9.89	16.2 ± 16.3	5.89 ± 3.57	15.4 ± 11.2	6.28 ± 7.45	5.89–10.92	–	–	25	3111 ± 1769	1511 ± 921	69 ± 79	860 ± 262	tissue necrosis with infiltration of CD8α-positive lymphocytes	significantly higher	9.73 ± 8.39	4498 ± 890
